Ki data for two compounds are collected here from ChEMBL document CHEMBL1221213, “Biomimetic synthesis of the IDO inhibitors exiguamine A and B” (Nat Chem Biol, 2008).

The target of the test is Indoleamine 2,3-dioxygenase 1 (Homo sapiens, UniProt P14902). The experiment in a line: Inhibition of human recombinant indoleamine-2,3-dioxygenase.
Indoleamine 2,3-dioxygenase 1, sequence (P14902 whole entry): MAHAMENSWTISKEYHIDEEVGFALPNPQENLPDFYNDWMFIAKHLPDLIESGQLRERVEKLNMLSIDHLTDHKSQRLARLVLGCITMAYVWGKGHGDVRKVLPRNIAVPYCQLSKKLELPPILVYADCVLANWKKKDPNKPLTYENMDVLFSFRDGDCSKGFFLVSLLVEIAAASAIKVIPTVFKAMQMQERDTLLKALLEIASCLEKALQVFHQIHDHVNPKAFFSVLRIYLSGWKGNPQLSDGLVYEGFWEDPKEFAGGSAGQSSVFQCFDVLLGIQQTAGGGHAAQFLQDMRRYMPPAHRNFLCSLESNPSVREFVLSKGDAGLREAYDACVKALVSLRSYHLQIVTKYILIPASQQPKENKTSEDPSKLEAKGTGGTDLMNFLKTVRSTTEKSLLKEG

With `CN(C)CCc1ccc(O)c(O)c1C1=C(C2C(=O)N(C)C(=O)N2C)C(=O)c2c(CCN)c[nH]c2C1=O` (configuration not stated), the Ki (in general, a measure of affinity in units of concentration, obtained from inhibition or displacement) amounted to 80 nM. With `CN1C(=O)N(C)[C@]2(Oc3c(O)cc4c(c3C3=C2C(=O)c2c(CCN)c[nH]c2C3=O)[C@H](O)C[N+]4(C)C)C1=O` [EXIGUAMINE B], the Ki worked out at 80 nM.
